Laboratory results reported in article PMC7377239, “Cardiovascular Effects of Polychlorinated Biphenyls and Their Major Metabolites” (Environmental Health Perspectives, 2020).

What was measured:
[1] = system: iCell cardiomyocytes (human iPSC-derived cardiomyocytes); assay: High-content imaging of cytotoxicity and mitochondrial integrity in iPSC-CMs; type: cell-based; settings: 0.00 µM = 100.00
Outline: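 Cardiomyocytes grown on gelatinized 384-well plates received fresh medium on the experiment day and were then exposed to chemicals at 0.01–100μM. Nuclei and mitochondria were labeled with Hoechst 33342 and MitoTracker™ Orange, then fixed, and imaged on an ImageXpress® Micro Confocal system. Four-parameter logistic concentration–response fits in R, with a one-standard-deviation vehicle cutoff, gave point-of-departure values.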

[2] = system: HUVECs; assay: High-content imaging cytotoxicity in HUVECs, 24 h; type: cell-based, human; settings: HUVECs, 24 hr, 0.00 µM = 100.00
Outline: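 Point-of-departure values come from four-parameter logistic fits of vehicle-normalized (0.5% DMSO) imaging readouts, cutoff one SD of vehicle means, 100μM where no concentration–response. Cells: HUVEC monolayers, passages 1–5, treated 24 h at 37°C, 5% CO2, then Hoechst 33342/MitoTracker Orange/calcein AM stained, imaged at 10×.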

Clc1ccc(Cl)c(-c2c(Cl)ccc(Cl)c2Cl)c1Cl [(-)-PCB 136, 2,2′,3,3′,6,6′-hexachlorobiphenyl]
cm.mii.90min ([1]; 0.01 µM): 112.68
cm.mito.90min ([1]; 0.01 µM): 96.45
cm.mii.24hrs ([1]; 0.01 µM): 102.85
cm.mito.24hrs ([1]; 0.01 µM): 101.32
cm.mii.90min ([1]; 0.10 µM): 114.32
cm.mito.90min ([1]; 0.10 µM): 99.06
cm.mii.24hrs ([1]; 0.10 µM): 75.71
cm.mito.24hrs ([1]; 0.10 µM): 97.62
cm.mii.90min ([1]; 1.00 µM): 108.72
cm.mito.90min ([1]; 1.00 µM): 99.64
cm.mii.24hrs ([1]; 1.00 µM): 98.56
cm.mito.24hrs ([1]; 1.00 µM): 95.39
cm.mii.90min ([1]; 10.00 µM): 109.00
cm.mito.90min ([1]; 10.00 µM): 96.91
cm.mii.24hrs ([1]; 10.00 µM): 82.93
cm.mito.24hrs ([1]; 10.00 µM): 97.40
cm.mii.90min ([1]; 100.00 µM): 5.98
cm.mito.90min ([1]; 100.00 µM): 0.07
cm.mii.24hrs ([1]; 100.00 µM): 87.76
cm.mito.24hrs ([1]; 100.00 µM): 0.79
huvec.mito.24hr ([2]; concentration 0.01 µM): 77.23
huvec.mitoint.24hr ([2]; concentration 0.01 µM): 84.43
huvec.nma.24hr ([2]; concentration 0.01 µM): 98.77
huvec.mito.24hr ([2]; concentration 0.10 µM): 130.40
huvec.mitoint.24hr ([2]; concentration 0.10 µM): 73.90
huvec.nma.24hr ([2]; concentration 0.10 µM): 86.45
huvec.mito.24hr ([2]; concentration 1.00 µM): 92.50
huvec.mitoint.24hr ([2]; concentration 1.00 µM): 88.05
huvec.nma.24hr ([2]; concentration 1.00 µM): 99.68
huvec.mito.24hr ([2]; concentration 10.00 µM): 30.92
huvec.mitoint.24hr ([2]; concentration 10.00 µM): 10.83
huvec.nma.24hr ([2]; concentration 10.00 µM): 50.44
huvec.mito.24hr ([2]; concentration 100.00 µM): 29.50
huvec.mitoint.24hr ([2]; concentration 100.00 µM): 15.66
huvec.nma.24hr ([2]; concentration 100.00 µM): 72.40
